Key:
TIMP-1, -2, and -3 = assay: Reverse zymography of aortic extracts; format: in vivo, rabbit; conditions: PPS-treated WHHL rabbits, 75 days HC-diet
Method: (§1) MMP activity in aortic extracts and conditioned media from monocytes was assessed, as previously described (Jacot T A, et al., Lab Invest. 1996; 75:791-79). Briefly, aortic segments were homogenized and extracted in RIPA buffer (25 mM Tris, pH 7.4, 150 mM KCl, 5 mM EDTA, 1% Nonidet P-40, 0.5% sodium deoxycholate, and 0.1% SDS). Insoluble material was precipitated by centrifugation, and soluble extracts were collected and stored at −20° C. for further analysis. For in vitro experiments, cell supernatants were centrifuged to remove cellular debris, and diluted appropriately to normalize for cell number. Aortic extracts and conditioned media were then mixed with sample buffer (1% SDS, 0.08 M Tris pH 6.8, 4% glycerol, and 0.006% bromophenol blue), and loaded onto a 10% gelatin polyacrylamide gel, and processed as described (Jacot T A, et al., Lab Invest. 1996; 75:791-79). For reverse zymography, samples were loaded onto a 15% gelatin polyacrylamide gel containing 0.5% porcine gelatin and 6 μg recombinant gelatinase A, and processed as described (Elliot S J, et al., J Am Soc Nephrol. 1999; 10: 62-68).

monocytic cells = assay: Cell viability by trypan blue staining; format: cell-based, human
hepatic lipase = assay: Post-heparin hepatic lipase activity in WHHL rabbits; format: in vivo, rabbit; conditions: end of treatment period
Method: Blood was drawn from rabbits after a 12-hour fast into tubes containing EDTA at the beginning of the study, every two weeks during treatment with the atherogenic diet, and at the end of the study. The total cholesterol and triglyceride concentrations (Sigma) as well as unesterified cholesterol and phospholipids (Wako Chemicals, Richmond, Va.) were determined on plasma samples using enzymatic methods on a Hitachi 911 Autoanalyzer (Boehringer Mannheim). Post-heparin hepatic lipase activity was determined as described (Iverius P H, Brunzell J D. Am J Physiol 1985; 249: E107-E114).

MMP-2 and MMP-9 = assay: Zymography of supernatants of human peripheral blood-derived macrophages; format: cell-based; conditions: TNF-α stimulated human peripheral blood-derived macrophages, 100 μg/ml PPS
Method: Human peripheral blood monocytes were isolated as previously described (Valone F H, Epstein L B. J Immunol. 1988; 141: 3945-3950), and maintained in medium 199 supplemented with 2% human serum for in vitro differentiation into macrophages (Camussi G, et al., J Exp Med. 1987; 166: 1390-1404).
as §1

IκB = assay: TNFα stimulated IκB phosphorylation in proximal tubular cells, Western-blot; format: cell-based, mouse; conditions: proximal tubular cells treated with PPS (400 μg/ml, ½ hour) before TNFα 10 ng/ml
Method: (§2) The activation of NF-κB and mitogen activated protein kinases including p38, JNK (Jun N-terminal kinase), and ERK (extracellular signal regulated kinase) pathways play an essential role in proinflammatory actions of TNFα. Thus, it was examined whether PPS affected the phosphorylation of IκB, ERK, p38, and JNK by TNFα. Proximal tubular cells were allowed to grow to 70% confluency in […] petri-dish. Cell lysates were collected before or 15, 30, 60, and 120 minutes after TNFα treatment (10 ng/ml). Cells in some dishes were pre-incubated with PPS (400 μg/ml) for ½ hour before exposure to TNFα. The levels of phosphorylated IκB, ERK, p38, and JNK were determined by Western-blots. Briefly, equal amounts of protein samples (10-20 μg/lane) were loaded onto SDS-PAGE gels. After electrophoresis, proteins were transferred to nitrocellulose membranes and blotted with antibody against phosphorylated IκB, ERK, p38, or JNK (Cell signaling, Boston, Mass.). After the first analysis, the membranes were stripped to re-probe with antibody against total IκB, ERK, p38 or JNK, and ERK and finally with antibody against β-actin (Cell signaling, Boston, Mass.).

[1] = test system: MCP-1, RANTES, CXCL1, MIP-2, ICAM-1, and iNOS mRNA; assay: TNFα induced pro-inflammatory gene expression in proximal tubular cell line, real-time PCR; format: cell-based, mouse; conditions: PPS 200 μg/ml for 1 hour before TNFα 10 ng/ml, RNA 4 hours later
Method: A proximal tubular cell line obtained from mice transgenic for SV40 T antigen was grown in DMEM containing 10% FBS. For the measurement of TNFα-stimulated gene expression, 1×10^5 proximal tubular cells were transferred to each well of a 6-well-plate. After placing the cells in 0.1% FBS medium for 24 hours, 10 ng/ml of TNFα was added to test wells. Total RNA was isolated from all wells 4 hours later. MCP-1, RANTES, CXCL1, MIP-2, ICAM-1, and iNOS mRNA levels were determined by real-time PCR as described above and corrected by β-actin mRNA levels. TNFα stimulated MCP-1 and RANTES production and release into the medium was measured in TNFα (10 ng/ml) treated and control cells at 24 hours. The amount of MCP-1 or RANTES in the medium was measured by ELISA (Invitrogen Corporation (Carlsband, Calif.).
To determine the effect of PPS on TNFα induced upregulation of proinflammatory genes, proximal tubular cells were pre-treated with PPS (200 μg/ml) for 1 hour before the addition of TNFα (10 ng/ml). MCP-1, RANTES, CXCL1, MIP-2, ICAM-1, and iNOS mRNA levels were determined 4 hours later by real-time PCR. MCP-1 and RANTES production was also measured.

MMP-2 = assay: Zymography of aortic extracts; format: in vivo, rabbit; conditions: PPS-treated WHHL rabbits, 75 days HC-diet
Method: as §1

ERK1/2 = assay: TNFα stimulated ERK1/2 phosphorylation in proximal tubular cells, Western-blot; format: cell-based, mouse
Method: as §2

podocytes = assay: Albumin permeability of podocyte monolayers (FITC-labeled BSA flux); format: cell-based; conditions: podocyte monolayer
Method: 1×10^5 podocytes were seeded onto collagen-coated transwell filters ([…] pore-size, Corning, N.Y., N.Y.) placed in the top chamber of each well of a 24-well plate. After cells reached confluence, some wells of cells were treated with TNFα (20 ng/ml), PPS (400 μg/ml), or PPS plus TNFα in 2% FBS medium for 8 hours. Then the medium from both the top and bottom chamber was completely removed, cells were washed twice with PBS and the top chamber was refilled with 0.2 ml 2% FBS medium supplemented with 0.5 mg/ml FITC-labeled BSA (Sigma Aldrich, St Louis, […].), while the bottom chamber was refilled with 0.6 ml 2% FBS medium supplemented with 0.5 mg/ml unlabeled BSA. At different time points, 100 μl aliquots were collected from the bottom chamber and fluorescence was measured by a fluorescence spectrophotometer (485 nm excitation, 535 nm emission). The concentration of FITC-BSA passing through the monolayer was determined by reference to a set of standard dilutions of FITC-BSA. The value of albumin flux through untreated monolayer was arbitrarily defined as 100%.

Q: How did the “activity of TIMP-1, -2, and -3 in aortic extracts” value (TIMP-1, -2, and -3) turn out when pentosan polysulfate [PPS] was run?
A: Its value is “marked increase”.

Q: And the “effect on cell viability” value (monocytic cells)?
A: Its value is “no effect”.

Q: And the “activity of post-heparin hepatic lipase, PPS- versus water-treated” value (hepatic lipase)?
A: Its value is “no differences”.

Q: And the “effect on MMP production” value (MMP-2 and MMP-9)?
A: The value was “inhibitory effect”.

Q: And the “decrease in the levels of IκB phosphorylation” value (IκB)?
A: Its value is 40-60%.

Q: What about the “TNFα stimulation of MCP-1, RANTES, CXCL-1, MIP-2, ICAM-1 and iNOS mRNA expression” value [1] of the same substance?
A: Its value is “largely prevented”.

Q: What about the “MMP-2 activity in aortic extracts” value (MMP-2) of the same substance?
A: Its value is “significantly increased”.

Q: What about the “TNFα-stimulated ERK1/2 phosphorylation” value (ERK1/2) of the same substance?
A: The value was “suppressed”.

Q: And the “inhibition of the flux of FITC-labeled BSA” value (podocytes; PPS 400 μg/ml plus TNFα 20 ng/ml, FIG. 18 legend)?
A: Its value is 34%.

Q: What about the “reduction of the TNFα-induced increase in FITC-labeled albumin passage” value (podocytes; PPS 400 μg/ml, TNFα 20 ng/ml) of the same substance?
A: The value was roughly 60%.

From patent publication US8871741B2, “Inhibition of TNF-α induced activation of NFKB by pentosan polysulfate” (Icahn School of Medicine at Mount Sinai, priority 2010, dated 2014)
